Experimental data published in ChEMBL document CHEMBL1156189, “Structure-function relationships of estrogenic triphenylethylenes related to endoxifen and 4-hydroxytamoxifen” (J Med Chem, 2010).
Activity calls are given as the source filed them. The rule behind the calls is not given here.

Assays:
[1] = system: MCF7:WS8; assay: (§1) Estrogenic activity in human ERalpha expressing MCF7:WS8 cells assessed as stimulation of cell proliferation after 7 days; assay type: functional
[2] = Antiestrogenic activity in human ERalpha expressing MCF7:WS8 cells assessed as inhibition of estradiol-induced proliferation at 1 uM after 7 days; assay type: functional, cell-based
[3] = as §1; assay type: functional

CC/C(=C(/c1ccc(O)cc1)c1ccc(OCCN(C)C)cc1)c1ccccc1
Activity [1]: inactive

CC/C(=C(\c1ccc(O)cc1)c1ccc(OCCNC)cc1)c1ccccc1
inhibition [2]: Active
Activity [1]: inactive

CCC(=C(c1ccc(O)cc1)c1ccc(O)cc1)c1ccc(O)cc1
inhibition [2]: inactive
EC50 ([3]; mcf7:ws8): 1.5 10^-1nmol

C[C@]12CC[C@@H]3c4ccc(O)cc4CC[C@H]3[C@@H]1CC[C@@H]2O [ESTRADIOL]
EC50 ([3]; mcf7:ws8): 0.001 nM

CC/C(=C(/c1ccccc1)c1ccc(O)cc1)c1ccc(O)cc1
EC50 ([3]; mcf7:ws8): 1 10^-1nmol

CC/C(=C(\c1ccccc1)c1ccc(O)cc1)c1ccc(O)cc1
EC50 ([3]; mcf7:ws8): 1 10^-1nmol

CCC(=C(c1ccc(O)cc1)c1ccc(O)cc1)c1ccccc1
EC50 ([3]; mcf7:ws8): 5 10^-2nmol

CCOc1ccc(/C(=C(/CC)c2ccc(O)cc2)c2ccc(O)cc2)cc1
inhibition [2]: inactive
EC50 ([3]; Homo sapiens, MCF7:WS8, 168 h, read-out: EC50): 4 nM

CCC(=C(c1ccc(O)cc1)c1ccc(OCCN(C)C)cc1)c1ccccc1
inhibition [2]: Active
Activity [1]: inactive
